From paper PMC10518020, “Structure of the peroxisomal Pex1/Pex6 ATPase complex bound to a substrate” (Nature Communications, 2023)

Molecular target: T1, Pex1/Pex6_WB (Pex1-Strep2/His-Pex6(E832Q)) heterohexamer (Saccharomyces cerevisiae, UniProt P24004+P33760, P33760:E832Q)
T1 construct: full-length Pex1 with C-terminal Strep2 tag and Pex6(E832Q, D2 Walker B) with N-terminal His tag, co-expressed in S. cerevisiae MH 272/3f alpha; heterohexamer of alternating Pex1 and Pex6 (trimer of dimers); endogenous peptide trapped in D2 pore
T1 sequence (P24004 1-1043): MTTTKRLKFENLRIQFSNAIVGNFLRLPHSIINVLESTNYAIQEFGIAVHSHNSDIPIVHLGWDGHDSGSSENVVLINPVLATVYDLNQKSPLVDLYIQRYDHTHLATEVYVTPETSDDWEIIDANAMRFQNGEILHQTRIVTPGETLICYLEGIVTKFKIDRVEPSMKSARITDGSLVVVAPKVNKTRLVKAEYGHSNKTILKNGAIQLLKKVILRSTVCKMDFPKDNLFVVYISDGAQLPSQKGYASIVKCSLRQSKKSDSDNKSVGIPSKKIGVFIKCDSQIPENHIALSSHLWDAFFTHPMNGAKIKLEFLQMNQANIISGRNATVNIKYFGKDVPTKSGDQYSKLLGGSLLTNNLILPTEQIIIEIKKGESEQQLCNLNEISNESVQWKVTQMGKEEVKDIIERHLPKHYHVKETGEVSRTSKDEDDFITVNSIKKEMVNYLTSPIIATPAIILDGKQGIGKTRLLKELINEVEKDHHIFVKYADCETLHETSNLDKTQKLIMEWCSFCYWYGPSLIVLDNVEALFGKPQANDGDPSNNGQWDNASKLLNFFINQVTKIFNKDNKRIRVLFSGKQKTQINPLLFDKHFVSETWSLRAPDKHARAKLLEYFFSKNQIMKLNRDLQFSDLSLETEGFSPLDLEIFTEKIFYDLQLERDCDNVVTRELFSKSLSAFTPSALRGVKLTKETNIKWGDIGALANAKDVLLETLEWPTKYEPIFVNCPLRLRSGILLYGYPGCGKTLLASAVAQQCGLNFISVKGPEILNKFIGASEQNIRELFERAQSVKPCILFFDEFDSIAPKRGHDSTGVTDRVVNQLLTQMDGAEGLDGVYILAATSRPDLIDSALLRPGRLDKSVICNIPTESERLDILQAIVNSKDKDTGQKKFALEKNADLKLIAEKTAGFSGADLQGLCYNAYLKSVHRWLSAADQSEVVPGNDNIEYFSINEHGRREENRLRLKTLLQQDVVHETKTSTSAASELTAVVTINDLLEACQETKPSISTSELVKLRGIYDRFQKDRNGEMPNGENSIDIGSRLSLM
T1 sequence (P33760 1-1030 E832Q): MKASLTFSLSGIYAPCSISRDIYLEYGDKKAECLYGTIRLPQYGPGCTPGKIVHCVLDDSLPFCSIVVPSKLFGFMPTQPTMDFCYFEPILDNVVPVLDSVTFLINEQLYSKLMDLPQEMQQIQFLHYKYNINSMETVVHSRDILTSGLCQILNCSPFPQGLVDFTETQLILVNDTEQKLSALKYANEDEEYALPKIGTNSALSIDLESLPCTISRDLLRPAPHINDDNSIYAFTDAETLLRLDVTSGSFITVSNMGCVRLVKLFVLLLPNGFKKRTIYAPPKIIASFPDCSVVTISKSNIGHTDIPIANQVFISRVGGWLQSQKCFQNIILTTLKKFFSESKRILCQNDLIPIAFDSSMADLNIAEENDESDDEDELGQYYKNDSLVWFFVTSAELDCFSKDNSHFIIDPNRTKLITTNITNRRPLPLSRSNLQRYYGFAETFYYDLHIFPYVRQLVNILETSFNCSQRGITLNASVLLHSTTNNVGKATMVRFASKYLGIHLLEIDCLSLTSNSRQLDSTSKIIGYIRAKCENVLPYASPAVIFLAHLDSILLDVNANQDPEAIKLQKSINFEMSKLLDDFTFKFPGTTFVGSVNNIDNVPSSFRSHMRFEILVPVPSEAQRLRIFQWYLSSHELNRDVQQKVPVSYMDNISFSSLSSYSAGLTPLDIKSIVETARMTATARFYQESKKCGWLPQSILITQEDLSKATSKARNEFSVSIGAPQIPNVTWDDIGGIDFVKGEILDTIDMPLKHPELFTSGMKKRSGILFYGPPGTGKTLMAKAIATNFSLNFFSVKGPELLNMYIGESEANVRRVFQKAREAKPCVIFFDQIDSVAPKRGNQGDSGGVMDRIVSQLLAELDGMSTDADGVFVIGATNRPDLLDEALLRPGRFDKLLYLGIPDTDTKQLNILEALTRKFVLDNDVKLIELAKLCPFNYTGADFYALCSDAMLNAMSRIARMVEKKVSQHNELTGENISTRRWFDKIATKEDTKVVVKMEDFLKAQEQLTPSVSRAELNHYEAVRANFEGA
Assay: cryo-EM structure
Assay type: binding

Compound	cryo-EM structure (D2 sites of bottom and seam subunits, nucleotide assigned from density and pocket opening, not with absolute confidence, no ADP added (ATP in purification))	cryo-EM structure (Mg2+, 1-3 mM ATP in purification, bound at all six D1 sites (not hydrolysed) and at D2 sites of the substrate-engaged subunits, single-seam 8C0V and twin-seam 8C0W)
Nc1ncnc2c1ncn2[C@@H]1O[C@H](COP(=O)(O)OP(=O)(O)O)[C@@H](O)[C@H]1O [ADP]	D2 domains are indeed in an ADP-bound state	–
Nc1ncnc2c1ncn2[C@@H]1O[C@H](COP(=O)(O)OP(=O)(O)OP(=O)(O)O)[C@@H](O)[C@H]1O [ATP]	–	all ATPase domains of the D1 ring are bound to ATP
